Earlier results in patent US20180185286A1, “POROUS MATERIALS CONTAINING COMPOUNDS INCLUDING […] ACTIVE SPECIES” (NOVARTIS PHARMA AG, priority 2014, published 2018).
≈ marks a conversion by molar mass, not a printed value.

Conditions: in the absence of being incorporated within a porous material

Row | aqueous solubility | Structure (SMILES)
1 | 2.5 µg/mL (≈ 6.99 µM) | COc1ccc2c(c1)c(CC(=O)O)c(C)n2C(=O)c1ccc(Cl)cc1 [indomethacin]
2 | 38 µg/mL (≈ 102 µM) | O=C(O)c1ccc(-n2nc(-c3ccccc3O)nc2-c2ccccc2O)cc1 [deferasirox]
3 | 38 µg/mL (≈ 184 µM) | CC(C)Cc1ccc(C(C)C(=O)O)cc1 (centres unmarked) [ibuprofen]
4 | 19 µg/mL (≈ 49.4 µM) | CCOC(=O)C1=C(C)NC(C)=C(C(=O)OC)C1c1cccc(Cl)c1Cl (centres unmarked) [felodipine]

Row | Structure (SMILES) | aqueous solubility
5 | O=C1[C@H](CC[C@H](O)c2ccc(F)cc2)[C@@H](c2ccc(O)cc2)N1c1ccc(F)cc1 [ezetimibe] | essentially insoluble in aqueous solutions
